Experimental data from patent US20170008888A1 (KYORIN PHARMACEUTICAL CO., LTD., priority 2014, published 2017).

Key:
[1] = system: human PBMCs; assay: Human PBMC TNF-α response to endotoxin (ELISA); type: cell-based; conditions: 0.1 μg/ml LPS 16 h, read-out: EC50 for the inhibition of the human PBMC TNF-α response to endotoxin, ave. ± S.D.
Experimental: Human PBMCs (Astarte Biologics, Redmond, Wash.) were seeded at 2e6 cells/ml in RPMI 1640 containing 10% (v/v) charcoal-dextran treated, heat inactivated FBS (Omega Scientific, Tarzana, Calif.), 0.05 mM 2-Mercaptoethanol (Sigma-Aldrich, St. Louis, Mo.), and 1×Pen/Strep Amphotericin B (Lonza, Allendale, N.J.). Cells were pre-treated with test compounds (10 μM down by ⅕ in a 4-point serial dilution series) for 1 h at 37° C. in a humidified atmosphere at 5% CO2. Cells were then stimulated with 0.1 μg/ml lipopolysaccharide (LPS) from E. coli 0111:B4 (EMD Millipore, Billerica, Mass.) for 16 h at 37° C. in a humidified atmosphere at 5% CO2. Supernatant was collected and a 25-fold dilution was analyzed for TNF-α concentration using an ELISA kit from Life Technologies (Grand Island, N.Y.) according to the manufacturer's instructions. Absorbance at 450 nm was read using the Synergy 2 multi-detection microplate reader (BioTek Instruments, Winooski, Vt.).

[2] = target: T1, ERK5 (Homo sapiens, UniProt Q13164); assay: Probe-based (AX9989 acyl phosphate ATP probe) kinase profiling in Jurkat lysate: ERK5; type: binding; conditions: for IC50: calculated from percent inhibition of AX9989 labeling and the screening concentration, Jurkat lysate; for inhibition at 1 µM: screening concentration 1.0 μM, read-out: Kinase inhibition % at indicated screening concentration: ERK5
T1 construct: screened for activity against several kinases in Jurkat cells; endogenous in cells; host or cells: Jurkat cell lysate
T1 sequence (Q13164 whole entry): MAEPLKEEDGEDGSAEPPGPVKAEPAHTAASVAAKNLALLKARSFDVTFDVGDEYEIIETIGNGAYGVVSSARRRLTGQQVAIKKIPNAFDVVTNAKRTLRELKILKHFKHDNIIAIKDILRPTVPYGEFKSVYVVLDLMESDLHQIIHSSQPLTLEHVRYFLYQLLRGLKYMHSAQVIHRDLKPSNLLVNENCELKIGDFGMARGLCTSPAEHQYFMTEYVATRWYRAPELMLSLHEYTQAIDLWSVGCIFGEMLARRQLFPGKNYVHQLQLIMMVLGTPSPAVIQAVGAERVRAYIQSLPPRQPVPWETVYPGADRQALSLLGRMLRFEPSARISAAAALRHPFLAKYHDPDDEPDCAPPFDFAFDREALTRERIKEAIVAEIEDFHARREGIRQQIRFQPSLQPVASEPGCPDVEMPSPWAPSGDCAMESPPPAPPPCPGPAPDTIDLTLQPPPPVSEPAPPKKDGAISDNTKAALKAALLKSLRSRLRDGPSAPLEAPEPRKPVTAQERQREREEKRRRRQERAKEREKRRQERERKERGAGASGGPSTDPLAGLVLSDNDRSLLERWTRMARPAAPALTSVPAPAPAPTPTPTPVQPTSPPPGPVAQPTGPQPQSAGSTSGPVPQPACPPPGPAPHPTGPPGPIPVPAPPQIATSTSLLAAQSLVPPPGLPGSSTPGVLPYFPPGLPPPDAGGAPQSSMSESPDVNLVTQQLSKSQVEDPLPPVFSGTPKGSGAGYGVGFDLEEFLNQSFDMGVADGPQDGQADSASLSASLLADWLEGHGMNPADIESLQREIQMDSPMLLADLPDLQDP
Experimental: (§1) In this example, potency of the compounds as ERK5 inhibitors was assessed, and the compounds were screened for activity against several kinases in Jurkat cells.
(§2) Jurkat cell pellets were resuspended in four volumes of lysis buffer (50 mM HEPES pH 7.5, 150 mM NaCl, 0.1% Triton-X-100, 1% v/v phosphatase, inhibitor cocktail II [EMD/Calbiochem, #524625]), sonicated using a tip, sonicator, and Dounce homogenized. Lysate was cleared by centrifugation, at 16,000 g for 15 min., was gel filtered (BioRad 10DG) and MnCl2 was then added to a final concentration of 20 mM before treatment with the test compound and probe labeling. […] All compound treatments were performed at room temperature.
(§3) Acyl phosphate ATP probe (AX9989) labeling reactions were performed at room temperature with a final probe concentration of 5 μM after a 15 min pre-incubation of lysate with a test compound. All reactions were performed in duplicate, using 445 μl/sample at 5 mg/ml. Probe-labeled lysates were denatured and reduced (6 M urea, 10 mM DTT, 65° C., 15 min), alkylated (40 mM iodoacetamide, 37° C., 30 min, and gel filtered (Sephadex G25) into 10 mM ammonium bicarbonate, 2 M urea, 5 mM methionine. The desalted protein mixture was digested with trypsin (0.015 mg/ml) for 1 hr at 37° C., and desthiobiotinylated peptides were captured using a […] high-capacity streptavidin resin (Thermo Scientific). Captured peptides were then washed extensively using 150 μl/wash with three different wash buffers: (A) 3 times with 1% triton, 0.5% tergitol, 1 mM EDTA in PBS; (B) 18 times with PBS; and (C) 8 times with HPLC grade water. Peptides were eluted from the streptavidin beads using two 35-μL washes of a 50% CH3CN/water mixture containing 0.1% TFA at room temperature.
(§4) Kinase active site peptides were identified and quantified using LC/MS. Percent inhibition was calculated as the normalized decrease in the ESI-MS fragment intensities of probe-labeled peptides in samples incubated with the test compound compared to those without.
ERK5 IC50 values were calculated from the percent inhibition and the screening concentration.

[3] = target: T2, JAK1 (Homo sapiens, UniProt P23458); assay: Probe-based (AX9989) kinase profiling in Jurkat lysate: JAK1; type: binding; conditions: screening concentration 1.0 μM; read-out: Kinase inhibition % at indicated screening concentration: JAK1
T2 construct: screened for activity against several kinases in Jurkat cells; endogenous in cells; host or cells: Jurkat cell lysate
T2 sequence (P23458 whole entry): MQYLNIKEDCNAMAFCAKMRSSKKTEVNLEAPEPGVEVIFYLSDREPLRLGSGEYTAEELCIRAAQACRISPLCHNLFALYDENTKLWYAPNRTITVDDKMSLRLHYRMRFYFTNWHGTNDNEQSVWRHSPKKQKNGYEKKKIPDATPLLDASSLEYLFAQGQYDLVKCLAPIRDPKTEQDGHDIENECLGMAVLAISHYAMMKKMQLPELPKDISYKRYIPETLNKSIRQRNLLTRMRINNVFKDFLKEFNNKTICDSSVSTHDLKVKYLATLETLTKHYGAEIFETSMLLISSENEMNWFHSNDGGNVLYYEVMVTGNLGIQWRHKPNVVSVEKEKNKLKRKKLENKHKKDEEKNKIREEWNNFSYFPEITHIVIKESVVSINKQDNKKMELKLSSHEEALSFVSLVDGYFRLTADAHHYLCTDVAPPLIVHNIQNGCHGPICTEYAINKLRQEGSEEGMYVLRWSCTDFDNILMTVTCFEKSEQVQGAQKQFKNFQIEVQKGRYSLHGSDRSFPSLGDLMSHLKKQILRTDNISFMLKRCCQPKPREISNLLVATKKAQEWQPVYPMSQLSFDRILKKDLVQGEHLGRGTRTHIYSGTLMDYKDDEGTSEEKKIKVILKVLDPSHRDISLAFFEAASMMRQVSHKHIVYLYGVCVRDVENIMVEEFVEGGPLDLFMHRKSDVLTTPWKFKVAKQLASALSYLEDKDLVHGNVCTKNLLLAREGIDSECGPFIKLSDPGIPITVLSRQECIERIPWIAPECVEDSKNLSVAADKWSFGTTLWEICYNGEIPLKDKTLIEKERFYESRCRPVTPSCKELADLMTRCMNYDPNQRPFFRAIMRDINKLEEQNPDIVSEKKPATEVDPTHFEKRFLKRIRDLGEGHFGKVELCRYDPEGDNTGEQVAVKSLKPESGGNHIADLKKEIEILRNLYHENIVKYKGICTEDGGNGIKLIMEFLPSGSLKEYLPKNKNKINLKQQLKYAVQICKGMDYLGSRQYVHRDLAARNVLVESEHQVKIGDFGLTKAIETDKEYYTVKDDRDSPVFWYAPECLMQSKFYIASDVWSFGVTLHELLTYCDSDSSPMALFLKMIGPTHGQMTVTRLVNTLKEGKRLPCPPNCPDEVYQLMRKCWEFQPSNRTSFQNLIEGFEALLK
Experimental: as §1, §2, §3, §4

[4] = system: ABL or ARG; assay: Probe-based (AX9989) kinase profiling in Jurkat lysate: ABL or ARG; type: binding; conditions: screening concentration 1.0 μM
Experimental: as §1, §2, §3, §4

[5] = system: AMPKa1 or AMPKa2; assay: Probe-based (AX9989) kinase profiling in Jurkat lysate: AMPKa1 or AMPKa2; type: binding; conditions: screening concentration 1.0 μM
Experimental: as §1, §2, §3, §4

[6] = target: T3, TAO2 (Homo sapiens, UniProt Q9UL54); assay: Probe-based (AX9989) kinase profiling in Jurkat lysate: TAO2; type: binding; conditions: screening concentration 1.0 μM; read-out: Kinase inhibition % at indicated screening concentration: TAO2
T3 construct: screened for activity against several kinases in Jurkat cells; endogenous in cells; host or cells: Jurkat cell lysate
T3 sequence (Q9UL54 1-1235): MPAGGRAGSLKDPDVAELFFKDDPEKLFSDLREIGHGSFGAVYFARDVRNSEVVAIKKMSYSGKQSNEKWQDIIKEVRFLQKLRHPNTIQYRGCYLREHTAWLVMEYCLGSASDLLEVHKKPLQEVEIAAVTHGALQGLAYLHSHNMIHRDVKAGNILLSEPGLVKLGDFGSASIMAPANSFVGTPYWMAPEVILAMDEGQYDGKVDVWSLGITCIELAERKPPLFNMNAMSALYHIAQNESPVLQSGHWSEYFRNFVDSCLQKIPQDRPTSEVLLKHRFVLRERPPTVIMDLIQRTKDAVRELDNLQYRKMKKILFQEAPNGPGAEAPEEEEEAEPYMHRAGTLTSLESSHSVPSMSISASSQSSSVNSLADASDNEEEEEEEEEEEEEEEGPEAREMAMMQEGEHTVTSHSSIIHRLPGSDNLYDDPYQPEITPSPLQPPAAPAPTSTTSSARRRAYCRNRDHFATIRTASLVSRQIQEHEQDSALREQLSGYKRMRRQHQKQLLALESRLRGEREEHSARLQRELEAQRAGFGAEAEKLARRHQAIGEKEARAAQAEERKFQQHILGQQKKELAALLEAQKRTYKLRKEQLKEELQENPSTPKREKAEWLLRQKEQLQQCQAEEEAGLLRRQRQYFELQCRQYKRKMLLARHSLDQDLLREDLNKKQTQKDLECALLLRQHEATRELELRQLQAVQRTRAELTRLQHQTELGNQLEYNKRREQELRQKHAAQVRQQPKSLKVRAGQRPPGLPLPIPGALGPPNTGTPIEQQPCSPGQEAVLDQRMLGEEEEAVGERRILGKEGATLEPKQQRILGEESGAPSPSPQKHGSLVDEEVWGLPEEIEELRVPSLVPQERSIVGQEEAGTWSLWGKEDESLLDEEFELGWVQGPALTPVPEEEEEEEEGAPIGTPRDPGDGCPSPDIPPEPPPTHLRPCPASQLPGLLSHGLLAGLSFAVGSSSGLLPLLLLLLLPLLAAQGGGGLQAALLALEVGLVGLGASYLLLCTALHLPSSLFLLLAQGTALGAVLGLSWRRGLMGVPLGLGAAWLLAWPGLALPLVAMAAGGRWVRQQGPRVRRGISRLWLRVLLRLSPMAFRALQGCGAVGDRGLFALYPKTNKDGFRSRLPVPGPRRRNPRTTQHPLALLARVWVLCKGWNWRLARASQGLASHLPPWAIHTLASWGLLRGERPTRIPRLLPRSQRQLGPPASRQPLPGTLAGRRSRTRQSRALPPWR
Experimental: as §1, §2, §3, §4

[7] = target: T4, ACK (Homo sapiens, UniProt Q07912); assay: Probe-based (AX9989) kinase profiling in Jurkat lysate: ACK; type: binding; conditions: screening concentration 1.0 μM; read-out: Kinase inhibition % at indicated screening concentration: ACK
T4 construct: screened for activity against several kinases in Jurkat cells; endogenous in cells; host or cells: Jurkat cell lysate
T4 sequence (Q07912 whole entry): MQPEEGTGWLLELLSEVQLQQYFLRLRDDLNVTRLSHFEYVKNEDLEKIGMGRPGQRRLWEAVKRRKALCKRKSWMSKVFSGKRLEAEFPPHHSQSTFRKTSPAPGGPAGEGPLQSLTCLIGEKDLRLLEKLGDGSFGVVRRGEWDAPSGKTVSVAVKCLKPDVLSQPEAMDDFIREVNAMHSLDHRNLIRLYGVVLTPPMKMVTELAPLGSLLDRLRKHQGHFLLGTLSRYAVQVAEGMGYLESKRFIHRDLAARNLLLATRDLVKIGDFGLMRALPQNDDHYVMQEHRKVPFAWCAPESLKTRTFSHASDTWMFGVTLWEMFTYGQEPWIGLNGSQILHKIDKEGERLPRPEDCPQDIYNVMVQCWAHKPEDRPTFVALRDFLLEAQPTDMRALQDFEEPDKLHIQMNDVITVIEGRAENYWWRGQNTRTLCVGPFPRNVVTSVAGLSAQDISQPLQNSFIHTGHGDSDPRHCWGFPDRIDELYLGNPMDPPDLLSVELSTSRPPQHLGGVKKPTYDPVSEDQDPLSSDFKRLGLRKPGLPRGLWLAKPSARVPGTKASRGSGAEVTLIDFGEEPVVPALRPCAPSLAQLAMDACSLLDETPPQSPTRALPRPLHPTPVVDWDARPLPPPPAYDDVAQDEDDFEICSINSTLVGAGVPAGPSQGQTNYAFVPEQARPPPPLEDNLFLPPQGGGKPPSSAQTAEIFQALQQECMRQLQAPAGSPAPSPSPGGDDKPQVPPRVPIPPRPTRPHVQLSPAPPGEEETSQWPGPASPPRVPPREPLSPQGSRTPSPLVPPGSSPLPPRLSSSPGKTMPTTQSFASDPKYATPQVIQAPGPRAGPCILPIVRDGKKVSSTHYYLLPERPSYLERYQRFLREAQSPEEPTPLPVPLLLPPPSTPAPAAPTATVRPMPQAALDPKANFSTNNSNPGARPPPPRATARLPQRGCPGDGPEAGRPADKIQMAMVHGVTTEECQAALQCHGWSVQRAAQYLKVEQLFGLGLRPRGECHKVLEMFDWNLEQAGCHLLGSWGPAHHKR
Experimental: as §1, §2, §3, §4

[8] = system: AurB or AurC; assay: Probe-based (AX9989) kinase profiling in Jurkat lysate: AurB or AurC; type: binding; conditions: screening concentration 1.0 μM
Experimental: as §1, §2, §3, §4

[9] = target: T5, AurA (Homo sapiens, UniProt O14965); assay: Probe-based (AX9989) kinase profiling in Jurkat lysate: AurA; type: binding; conditions: screening concentration 1.0 μM; read-out: Kinase inhibition % at indicated screening concentration: AurA
T5 construct: screened for activity against several kinases in Jurkat cells; endogenous in cells; host or cells: Jurkat cell lysate
T5 sequence (O14965 1-403): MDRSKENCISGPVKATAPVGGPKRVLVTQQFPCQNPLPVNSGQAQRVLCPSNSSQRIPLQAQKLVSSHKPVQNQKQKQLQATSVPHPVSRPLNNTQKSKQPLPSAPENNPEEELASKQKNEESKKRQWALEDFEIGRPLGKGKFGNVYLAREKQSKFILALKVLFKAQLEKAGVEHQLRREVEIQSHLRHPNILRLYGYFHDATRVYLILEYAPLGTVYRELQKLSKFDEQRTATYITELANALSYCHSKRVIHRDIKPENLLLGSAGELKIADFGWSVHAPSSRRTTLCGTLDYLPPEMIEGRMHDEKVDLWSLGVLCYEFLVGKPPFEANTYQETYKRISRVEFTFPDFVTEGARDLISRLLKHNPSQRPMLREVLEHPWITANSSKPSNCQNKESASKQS
Experimental: as §1, §2, §3, §4

Structure (SMILES) | EC50 [1] [nM] | IC50 [2] [nM] | inhibition at 1 µM [2] [%] | inhibition at 1 µM [3] [%] | Kinase inhibition % at indicated screening concentration: ABL or ARG [4] | Kinase inhibition % at indicated screening concentration: AMPKa1 or AMPKa2 [5] | inhibition at 1 µM [6] [%] | inhibition at 1 µM [7] [%] | Kinase inhibition % at indicated screening concentration: AurB or AurC [8] | inhibition at 1 µM [9] [%]
Cc1ccc(Nc2cc3c(cn2)N(C)C(=O)c2ccccc2N3C)c(C)c1 [Compound 3] | 4230 | > 500 | 35 to 50 | – | – | – | – | – | – | –
CCOc1ccccc1Nc1cc2c(cn1)N(C)C(=O)c1ccccc1N2C [Compound 13] | – | > 500 | 50 to 75 | ≤ 35 | E (E is ≦35%) | E (E is ≦35%) | ≤ 35 | ≤ 35 | E (E is ≦35%) | ≤ 35
CCOc1cc(C(=O)O)ccc1Nc1cc2c(cn1)N(C)C(=O)c1ccccc1N2C [Compound 18, 4-(5,11-Dimethyl-10-oxo-10,11-dihydro-5H-benzo[e]pyrido[3,4-b][1,4]diazepin-3-ylamino)-3-ethoxybenzoic acid] | – | > 500 | 50 to 75 | ≤ 35 | E (E is ≦35%) | E (E is ≦35%) | ≤ 35 | ≤ 35 | E (E is ≦35%) | ≤ 35
COc1ccccc1Nc1cc2c(cn1)N(C)C(=O)c1ccccc1N2C [Compound 19] | – | > 500 | 50 to 75 | ≤ 35 | E (E is ≦35%) | E (E is ≦35%) | ≤ 35 | ≤ 35 | E (E is ≦35%) | ≤ 35
Cc1nn(C)cc1Nc1cc2c(cn1)N(C)C(=O)c1ccccc1N2C [Compound 22] | – | 101 to 500 | 75 to 90 | ≤ 35 | E (E is ≦35%) | E (E is ≦35%) | ≤ 35 | ≤ 35 | E (E is ≦35%) | ≤ 35
CCOc1cc(C(=O)N2CCC(N3CCCC3)CC2)ccc1Nc1cc2c(cn1)N(C)C(=O)c1scnc1N2C [Compound 34] | – | – | > 90 | ≤ 35 | E (E is ≦35%) | E (E is ≦35%) | ≤ 35 | ≤ 35 | E (E is ≦35%) | ≤ 35
COc1ccc(C(=O)O)cc1Nc1cc2c(cn1)N(C)C(=O)c1ccccc1N2C [Compound 36] | – | > 500 | 35 to 50 | ≤ 35 | E (E is ≦35%) | E (E is ≦35%) | ≤ 35 | ≤ 35 | E (E is ≦35%) | ≤ 35
Cc1cc(O)ccc1Nc1cc2c(cn1)N(C)C(=O)c1ccccc1N2C [Compound 38] | – | 101 to 500 | 50 to 75 | ≤ 35 | E (E is ≦35%) | E (E is ≦35%) | ≤ 35 | ≤ 35 | E (E is ≦35%) | ≤ 35
